Measured values: patent publication US8680139B2 (Progenra, priority 2009, dated 2014)

How the values were obtained:
HCT-116 cells [1] = tested on: HCT-116 cells
Protocol: (§3) The purpose of this assay is to determine if any of the synthesized compounds are cytotoxic against HCT-116 cells, as measured by resazurin metabolism. Resazurin is metabolized only by living cells from a non-fluorescent molecule into Resorufin, a highly red fluorescent dye. […] The cells were cultured in an incubator at 37° C. in 5% CO2 and 95% humidified air. […] The final concentration DMSO was 0.5% (v/v) in all samples. The plates were returned to the incubator for 72 hours. Following 72 hours of test compound exposure, 10 μL of 0.2 mg/mL Resazurin (Sigma) in phosphate buffered saline was added to each well and the plate was returned to the incubator for 3-6 hours. Since living cells metabolize Resazurin, the fluorescence of the reduction product of Resazurin was measured using a microplate fluorometer with λex=531 nm and λem=590 nm filters. Resazurin dye in medium without cells was used to determine the background, which was subtracted from the data for all experimental wells.

USP7 = target: T1, USP7 (Homo sapiens, UniProt Q93009); experiment: USP7, Ub-PLA2 assay; assay type: biochemical; conditions: Ub-PLA2 / NBD C6-HPC fluorescence, 30 minute preincubation; read-out: EC50 for inhibition of USP7
T1 construct: full length human USP7 protein; made in house
Outline: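 Compounds tested against USP7 with DMSO vehicle control and NEM-treated wells as background. Fluorescence (RFU) read-out; % inhibition normalized per plate to mean DMSO and NEM controls.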

A549/ATCC = experiment: NCI-60 Human Tumor Cell Line Growth Inhibition Screen; assay type: cell-based; conditions: Non-Small Cell Lung Cancer, 48 hours, SRB
Protocol: (§1) Various human tumor cell lines representing the NCI-60 cancer screening panel were grown in RPMI 1640 medium containing 5% fetal bovine serum and 2 mM L-glutamine. For a typical screening experiment, cells were inoculated into 96 well microtiter plates in 100 μL at plating densities ranging from 5,000 to 40,000 cells/well depending on the doubling time of individual cell lines. After cell inoculation, the microtiter plates were incubated at 37° C., 5% CO2, 95% air and 100% relative humidity for 24 hours prior to addition of the test compound. After 24 hours, two plates of each cell line were fixed in situ with TCA, to represent a measurement of the cell population for each cell line at the time of test compound addition (Tz). Experimental test compounds were solubilized in 100% (v/v) DMSO at 400-fold the desired final maximum test concentration and stored frozen prior to use. At the time of test compound addition, an aliquot of frozen concentrate was thawed and diluted to twice the desired final maximum test concentration with complete medium containing 50 μg/ml gentamicin. Additional four, 10-fold or ½ log serial dilutions were made to provide a total of five test compound concentrations plus control. Aliquots of 100 μl of these different test compound dilutions were added to the appropriate microtiter wells already containing 100 μl of medium, resulting in the required final test compound concentrations.
(§2) Following test compound addition, the plates were incubated for an additional 48 hours at 37° C., 5% CO2, 95% air, and 100% relative humidity. For adherent cells, the assay was terminated by the addition of cold TCA. Cells were fixed in situ by the gentle addition of 50 μl of cold 50% (w/v) TCA and incubated for 60 minutes at 4° C. The supernatant was discarded, and the plates were washed five times with tap water and air dried. Sulforhodamine B (SRB) solution (100 μl) at 0.4% (w/v) in 1% acetic acid was added to each well, and plates were incubated for 10 minutes at room temperature. After staining, unbound dye was removed by washing five times with 1% acetic acid and the plates were air dried. Bound stain was subsequently solubilized with 10 mM trizma base, and the absorbance was read on an automated plate reader at a wavelength of 515 nm. For suspension cells, the methodology was the same except that the assay was terminated by fixing settled cells at the bottom of the wells by gently adding 50 μl of 80% TCA. Using the seven absorbance measurements [time zero, (Tz), control growth, (C), and test growth in the presence of test compound at the five concentration levels (Ti)], the percentage growth was calculated at each of the test compound concentrations levels. Percentage growth inhibition was calculated as: [(Ti−Tz)/(C−Tz)]×100 for concentrations for which Ti≧Tz or [(Ti−Tz)/Tz]×100 for concentrations for which Ti<Tz. Growth inhibition of 50% (GI50) was calculated from [(Ti−Tz)/(C−Tz)]×100=50, which is the test compound concentration resulting in a 50% reduction in the net protein increase (as measured by SRB staining) in control cells during the test compound incubation.

CAKI-1 = experiment: as above; assay type: cell-based; conditions: CAKI-1, Renal Cancer, 48 hours, SRB
Protocol: as §1, §2

HL-60(TB) = experiment: as above; assay type: cell-based; conditions: Leukemia, 48 hours, SRB
Protocol: as §1, §2

HT29 = experiment: as above; assay type: cell-based; conditions: HT-29, HT29, Colon Cancer, 48 hours, SRB
Protocol: as §1, §2

LOX IMVI = experiment: as above; assay type: cell-based; conditions: Melanoma, 48 hours, SRB
Protocol: as §1, §2

MCF7 = experiment: as above; assay type: cell-based; conditions: MCF7, Breast Cancer, 48 hours, SRB
Protocol: as §1, §2

OVCAR-3 = experiment: as above; assay type: cell-based; conditions: OVCAR-3, Ovarian Cancer, 48 hours, SRB
Protocol: as §1, §2

PC-3 = experiment: as above; assay type: cell-based; conditions: PC-3, Prostate Cancer, 48 hours, SRB
Protocol: as §1, §2

U251 = experiment: as above; assay type: cell-based; conditions: U-251, U251, CNS Cancer, 48 hours, SRB
Protocol: as §1, §2

[2] = HCT-116 Cellular Cytotoxicity Assay; conditions: human, HCT-116 cells, pH 7.2
Protocol: as §3

HCT-116 cells [3] = experiment: HCT-116 Combination Cytotoxicity Assay; assay type: cell-based, human; conditions: constant ratio, 72 hours
[4] = tested on: human multiple myeloma tumor cells; experiment: In vivo Efficacy of P5091; conditions: SCID mice, 10 mg/kg intravenously twice a week for three weeks
Protocol: Severe combined immunodeficient mice inoculated subcutaneously with human multiple myeloma tumor cells were treated intravenously twice a week for three weeks with 10 mg/kg P5091. […] See D. Chauhan et al., Abstract No. 610 (Deubiquitylating Enzyme USP-7, a Novel Therapeutic Target in Multiple Myeloma), 51st ASH Annual Meeting and Exposition, New Orelans, La., December 2009.

T1 sequence (Q93009 whole entry): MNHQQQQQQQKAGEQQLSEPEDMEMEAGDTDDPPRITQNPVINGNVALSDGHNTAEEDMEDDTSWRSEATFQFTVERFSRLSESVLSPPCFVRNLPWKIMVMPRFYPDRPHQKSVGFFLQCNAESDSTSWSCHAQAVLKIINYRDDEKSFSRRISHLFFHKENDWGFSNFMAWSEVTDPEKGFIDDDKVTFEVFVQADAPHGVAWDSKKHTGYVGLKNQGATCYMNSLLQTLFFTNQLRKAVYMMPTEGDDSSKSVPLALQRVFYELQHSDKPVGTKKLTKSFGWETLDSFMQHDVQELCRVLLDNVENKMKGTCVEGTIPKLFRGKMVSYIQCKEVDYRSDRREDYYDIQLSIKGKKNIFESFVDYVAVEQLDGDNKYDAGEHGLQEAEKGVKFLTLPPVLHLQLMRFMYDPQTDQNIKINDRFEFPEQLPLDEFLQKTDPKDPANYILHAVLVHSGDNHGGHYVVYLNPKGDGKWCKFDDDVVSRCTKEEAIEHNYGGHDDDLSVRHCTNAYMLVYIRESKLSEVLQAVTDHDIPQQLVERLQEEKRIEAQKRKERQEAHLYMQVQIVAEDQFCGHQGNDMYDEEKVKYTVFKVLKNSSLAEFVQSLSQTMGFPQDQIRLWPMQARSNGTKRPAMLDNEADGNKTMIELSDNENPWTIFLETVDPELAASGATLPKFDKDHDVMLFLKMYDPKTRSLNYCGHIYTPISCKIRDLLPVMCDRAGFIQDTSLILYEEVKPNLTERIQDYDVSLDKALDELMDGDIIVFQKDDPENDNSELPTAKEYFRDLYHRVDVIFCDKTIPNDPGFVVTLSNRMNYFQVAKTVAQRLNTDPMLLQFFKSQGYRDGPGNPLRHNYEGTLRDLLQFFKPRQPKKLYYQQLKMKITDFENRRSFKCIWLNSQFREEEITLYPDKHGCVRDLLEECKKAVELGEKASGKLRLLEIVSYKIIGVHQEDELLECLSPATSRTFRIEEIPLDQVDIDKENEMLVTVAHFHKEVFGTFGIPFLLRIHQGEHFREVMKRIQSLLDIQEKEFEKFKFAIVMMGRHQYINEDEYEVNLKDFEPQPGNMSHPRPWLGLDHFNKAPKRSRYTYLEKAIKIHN

Row | Compound | EC50 (HCT-116 cells [1]) [nM] | EC50 (USP7) [nM] | GI50 (A549/ATCC) [nM] | GI50 (CAKI-1) [nM] | GI50 (HL-60(TB)) [nM] | GI50 (HT29) [nM] | GI50 (LOX IMVI) [nM] | GI50 (MCF7) [nM] | GI50 (OVCAR-3) [nM] | GI50 (PC-3) [nM] | GI50 (U251) [nM] | EC50 at 72 h [2] [nM] | CI (mean ± SD) ED75 (HCT-116 cells [3]; combination with Chlormethine) | CI (mean ± SD) ED90 (HCT-116 cells [3]; combination with Chlormethine) | CI (mean ± SD) ED75 (HCT-116 cells [3]; combination with Doxorubicin) | CI (mean ± SD) ED90 (HCT-116 cells [3]; combination with Doxorubicin) | CI (mean ± SD) ED75 (HCT-116 cells [3]; combination with Etoposide) | CI (mean ± SD) ED90 (HCT-116 cells [3]; combination with Etoposide) | human plasmacytoma growth [4] | survival [4]
1 | N-(5-(tert-butyl)isoxazol-3-yl)-5-((3,5-dichloropyridin-4-yl)thio)-4-nitrothiophene-2-carboxamide [Example 201] | 12900 |  |  |  |  |  |  |  |  |  |  |  |  |  |  |  |  |  |  | 
2 | CC(=O)c1cc([N+](=O)[O-])c(Sc2c(Cl)cncc2Cl)s1 [Example 17, 1-[5-[(3,5-dichloro-4-pyridyl)sulfanyl]-4-nitro-2-thienyl]ethanone] |  | 1000 to 10000 | 3090 | 1860 | 1910 | 1860 | 1510 | 1910 | 1410 | 2750 | 1950 | 8660 |  |  |  |  |  |  |  | 
3 | CS(=O)(=O)c1cc([N+](=O)[O-])c(Sc2c(Cl)cncc2Cl)s1 [Example 22, 3,5-dichloro-4-[(5-methylsulfonyl-3-nitro-2-thienyl)sulfanyl]pyridine] |  | 1000 to 10000 | 13800 | 1820 | 1410 | 2040 | 10000 | 2040 | 1820 | 3720 | 12900 |  |  |  |  |  |  |  |  | 
4 | CS(=O)(=O)c1cc([N+](=O)[O-])c(Sc2ccc(Cl)cc2Cl)s1 [Example 23, 2-(2,4-dichlorophenyl)sulfanyl-5-methylsulfonyl-3-nitro-thiophene] |  | 1000 to 10000 | 12600 | 2240 | 2190 | 1780 | 1740 | 1700 | 1620 | 3980 | 6310 |  |  |  |  |  |  |  |  | 
5 | CC(=O)c1cc([N+](=O)[O-])c(Sc2ccc(F)cc2F)s1 [Example 3, 1-[5-(2,4-Difluorophenylsulfanyl)-4-nitro-2-thienyl]ethanone] |  |  | 15500 | 1820 | 2750 | 3800 | 1510 | 2570 | 2040 | 12000 | 4790 |  |  |  |  |  |  |  |  | 
6 | CC(=O)c1cc([N+](=O)[O-])c(Sc2cccc(Cl)c2Cl)s1 [Example P5091, 1-[5-(2,3-dichlorophenyl)sulfanyl-4-nitro-2-thienyl]ethanone] |  |  | 16300 | 2170 | 1820 | 2070 | 1840 | 1940 | 1650 | 1780 | 2330 | 9210 | 0.67 ± 0.07 | 0.77 ± 0.05 | 0.73 ± 0.08 | 0.81 ± 0.02 | 0.54 ± 0.04 | 0.63 ± 0.01 | significantly inhibited human plasmacytoma growth | significantly enhanced survival
